Experimental data taken from paper PMC8874540, “Pyrazole and Triazole Derivatives as Mycobacterium tuberculosis UDP-Galactopyranose Inhibitors” (Pharmaceuticals, 2022).
Counter-ions that a name gives are not always drawn.

target: T1, UDP-galactopyranose mutase (MtbUGM) (Mycobacterium tuberculosis, UniProt P9WIQ1); experiment: HPLC assay, % inhibition at […], […] UDP-Galf; type: biochemical
T1 construct: gene glf; His6-tagged MtbUGM from pET-29b(+)
T1 sequence (P9WIQ1 whole entry): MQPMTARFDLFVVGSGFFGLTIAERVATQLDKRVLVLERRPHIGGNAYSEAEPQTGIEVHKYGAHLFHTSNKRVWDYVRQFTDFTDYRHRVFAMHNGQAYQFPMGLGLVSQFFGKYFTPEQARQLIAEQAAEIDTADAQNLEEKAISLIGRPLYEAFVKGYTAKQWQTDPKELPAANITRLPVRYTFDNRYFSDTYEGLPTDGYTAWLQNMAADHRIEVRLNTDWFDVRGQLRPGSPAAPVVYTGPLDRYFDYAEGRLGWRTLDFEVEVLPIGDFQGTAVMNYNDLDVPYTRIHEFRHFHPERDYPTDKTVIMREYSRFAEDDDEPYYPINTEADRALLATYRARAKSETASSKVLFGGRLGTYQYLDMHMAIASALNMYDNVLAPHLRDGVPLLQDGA

SMILES | HPLC assay, % inhibition at 60 μM, 15 μM UDP-Galf
Cc1nn(-c2ccc(Cl)cc2)c(O)c1C(=O)c1ccccc1 [DA2, 4-benzoyl-1-p-chlorophenyl-3-methyl-5-pyrazol] | DA1 and DA2 showed comparable inhibition to that of MS208
OC(c1ccc(Cl)cc1)c1cn(-c2ccc(Cl)cc2)nn1 (stereo not drawn) [DA12, [1-(4-chlorophenyl)-1H-1,2,3-triazol-4-yl]-4-chlorophenylmethanol] | The triazolo analogues, DA11-DA13, showed comparable % inhibition to that of MS208.
Cc1nn(-c2ccc(Cl)cc2)c(O)c1C(=O)c1ccc(Cl)cc1 [MS208, 4-p-chlorobenzoyl-1-p-chlorophenyl-3-methyl-5-pyrazol] | DA1 and DA2 showed comparable inhibition to that of MS208
Cc1nn(-c2ccc(Cl)cc2)c(O)c1S(=O)(=O)c1ccc(Cl)cc1 [DA5, 4-p-chlorobenzosulfonyl-1-p-chlorophenyl-3-methyl-5-pyrazol hydrochloride] | The sulfonyl derivative, DA5, showed comparable % inhibition to that of the carbonyl derivative MS208.
Cc1nn(-c2ccccc2)c(O)c1C(=O)c1ccc(Cl)cc1 [DA1, 4-p-chlorobenzoyl-1-phenyl-3-methyl-5-pyrazol] | DA1 and DA2 showed comparable inhibition to that of MS208
COC(=O)c1ccc(C(=O)Oc2cc(C)nn2-c2ccc(Cl)cc2)cc1 [DA8] | two of these O-acyl analogues, DA8 and DA10 still showed comparable % inhibition to MS208
O=C(CCc1cn(-c2ccc(Cl)cc2)nn1)Oc1ccc(Cl)cc1 [DA11] | The triazolo analogues, DA11-DA13, showed comparable % inhibition to that of MS208.
O=C(c1ccc(Cl)cc1)c1cn(-c2ccc(Cl)cc2)nn1 [DA13, 4-p-chlorobenzoyl-1-p-chlorophenyl-1H-1,2,3-triazole] | The triazolo analogues, DA11-DA13, showed comparable % inhibition to that of MS208.

target: T1, UDP-galactopyranose mutase (MtbUGM); experiment: HPLC kinetic assay of UDP-Galf to UDP-Galp, global fit; type: biochemical

SMILES | Ki
Cc1cc(OC(=O)c2ccc(S(N)(=O)=O)cc2)n(-c2ccc(Cl)cc2)n1 [DA10, 4-Sulfamoyl-[3-methyl-1-p-chlorophenyl-1H-pyrazol-5-yl] benzoic acid ester] | 51 ± 4 µM
